Measured values reported in paper PMC7442216 (Journal of medicinal chemistry, 2019).

Tested on: HIV-1 NL4-3 NanoLuc-sec infection of MT4 cells
Assay: MOA comparison: antiviral activity in the presence or absence of enzastaurin
Type: cell-based
Conditions: for HIV-1 inhibitory activity in the presence of enzastaurin: enzastaurin 1 μM, 1 at 0.6 nM, 13e at 2 nM

With C=C(C)[C@]12C[C@@H](COC(=O)c3ccccc3)[C@@]34OC5(O[C@@H]1[C@@H]3[C@@H]1O[C@]1(CO)[C@@H](O)[C@@]1(O)[C@H]4[C@H]([C@H](C)[C@@H]1OC(=O)c1ccccc1)[C@H](C)CCCCCC[C@H]5O)O2 [Compound 1, gnidimacrin] the “HIV-1 inhibitory activity in the presence of enzastaurin” value was “largely abrogated”.

For Cn1cc(C2=C(c3cn(C4CCN(Cc5ccccn5)CC4)c4ccccc34)C(=O)NC2=O)c2ccccc21 [enzastaurin, reference compound], the “antagonism of GM's HIV-1 inhibitory activity” value (enzastaurin at 1 μM, GM at 0.6 nM) was “effectively antagonized”.

With C=C(C)[C@]12C[C@@H](COC(=O)c3ccccc3)[C@@]34OC5(O[C@@H]1[C@@H]3[C@@H]1O[C@]1(CO)[C@@H](O)[C@@]1(O)[C@H]4[C@H]([C@H](C)[C@@H]1OC(=O)c1ccncc1)[C@H](C)CCCCCC[C@H]5O)O2 [Compound 13e, 3-O-(4-Pyridinylcarbonyl) Stelleramacrin] the “HIV-1 inhibitory activity in the presence of enzastaurin” value was “able to abrogate” and the “antiviral potency relative to 1” value (in this assay) was “approximately threefold weaker”.
